Non-standard residues stand in square brackets, D forms with d. No end group written: not given here. Cit = NC(=O)NCCC[C@H](N)C(=O)O
How the values were obtained:
[1] = system: human polyclonal IgG; assay: Batch adsorption isotherm (Langmuir fit); type: binding; settings: peptide-TREN-WB resin, 0.1-12 mg/mL IgG in PBS pH 7.4, 2 h, room temperature, UV 280 nm
Experimental: The IgG-binding affinity of the ligand variants was initially measured via batch adsorption studies. Briefly, aliquots of peptide-TREN-WB resin were incubated with solutions of IgG in PBS in a range of concentration between 0.1 and 12 mg/mL; as the binding equilibrium was reached, the amount of IgG adsorbed on each resin aliquot was calculated based on the equilibrium concentration of IgG in solution, and the corresponding values were fitted to the Langmuir model: q=QmaxC/KD+C where in KD is the dissociation constant and Qmax the equilibrium binding capacity.
The adsorption of human polyclonal IgG by the HWRGWV-WB resins was measured at room temperature in a set of batch adsorption experiments. The resin was equilibrated with PBS, pH 7.4, and transferred into fritted tubes (50 µL of resin slurry per tube). Lyophilized IgG was dissolved in PBS, pH 7.4, at different concentrations ranging from 0.1 to 12 mg/mL. A volume of 1 mL of IgG solution was incubated with each of the resin aliquots for two hours, at room temperature, and under mild agitation. The supernatants were collected and quantified by UV-absorbance at 280 nm to determine the amount of IgG adsorbed by the resin and the corresponding equilibrium concentration of unbound IgG in solution, and the resulting data were fitted to a Langmuir isotherm.

[2] = system: CHO host cell proteins (HCPs); assay: Host cell protein clearance (HCP ELISA) in IgG1 purification from CHO supernatant; set-up: species or system Chinese Hamster Ovary (CHO); settings: for HCP LRV: elution 0.1 M Na-acetate pH 4.5, TREN-WB adsorbent
Experimental: (§1) Further, the chromatographic fractions were analyzed using a HCP ELISA kit and a Quant-IT Picogreen dsDNA assay kit to determine the levels of host cell proteins (HCPs) and DNA, respectively.
(§2) In this work, we have investigated the effect of pH of the elution buffer on the performance of HWRGWV-TREN-WB resin with a therapeutic monoclonal IgG1. Specifically, 0.1 M acetate buffer was used as a milder elution buffer (pH 4–5), while 0.1 M glycine HCl buffer was used for low pH elution (pH 2.5). The performance of the different buffers was evaluated in terms of HCP LRV in the eluted fraction, whose values are reported in Figure 5. The HCP clearance decreases at lower elution pH, which is however needed to ensure sufficient IgG yield. At pH 5, where a HCP LRV of 1.18 is obtained, only 75% of the bound IgG is eluted. […] Therefore, acetate buffer pH 4.5 was selected as elution buffer, as it offers the best combination of yield and purity.
The majority of CHO HCPs are acidic in nature and have an overall negative charge at the physiological conditions (PBS pH 7.4). Their non-specific binding to the positively charged ligand (the net charge of HWRGWV at pH 7 is +1.1) is likely of electrostatic nature. In order to lower the non-specific capture of HCPs, pre-elution wash conditions were optimized by exploring different compositions and pH values of the washing buffer. Specifically, the following conditions were utilized, 0.2 M sodium phosphate pH 6, 0.2 M sodium phosphate pH 7, PBS pH 7.4, 1 M NaCl in PBS at pH 7.4, and 0.1 M Tris HCl pH 9.
The host cell protein contents of the chromatographic fractions were determined using HCP ELISA kits from Cygnus Technologies (Southport, NC, USA). The high sensitivity protocol described by the manufacturer was used in the analysis. Briefly, the anti-CHO-coated microtiter wells were filled with 100 μL of standards and samples, and incubated on a rotator at 200 rpm for 1 h at room temperature. The wells were then washed three times with 300 μL washing buffer, and 100 μL of HRP-labeled anti-CHO antibody was added to each of the wells. After rinsing the wells, 100 μL of 3,3′,5,5′ tetramethyl benzidine (TMB) substrate solution was added to each well for 30 min at room temperature. The reaction was terminated by adding 100 μL of 0.5 M sulphuric acid. The amount of hydrolyzed substrate was measured by μQuant Microplate reader (BioTek Inc., Winooski, VT, USA) at 450 nm. A 4-parameter logistic fit was used to calculate the HCP (ng/mL) content in the chromatographic fractions. The HCP values determined in terms of ng/mL were converted into ng/mg of MAb to account for the dilution of fractions. The log reduction value (LRV) was determined as the log10 of the ratio of HCP in the load to the HCP in the elution fractions.

[3] = system: DNA; assay: DNA clearance (Quant-IT PicoGreen) in IgG1 purification from CHO supernatant; set-up: species or system Chinese Hamster Ovary (CHO); settings: washing buffer PBS, pH 7.4; elution 0.1 M Na-acetate pH 4.5; TREN-WB adsorbent
Experimental: as §1
The chromatographic fractions were first diafiltered against 10 mM Tris–HCl pH 7.5, using Amicon® centrifugal filters (3000 MWCO Millipore, Bedford, MA, USA). The DNA content in the fractions was determined by pico green assay using Quant-IT Picogreen dsDNA assay kit from Thermo Fisher Scientific (Philadelphia, PA, USA). Quantification was done as per the manufacturer’s protocol.

[4] = system: IgG; settings: preliminary studies; cited from earlier work
Description: In this work the peptide and peptide variants have been conjugated to Workbeads base resin at varying ligand densities ...

[5] = system: Fc region of IgG; settings: cited from earlier work
Description: Several chromatographic and non-chromatographic techniques have been proposed for the purification of Mabs, fc fusion proteins and bispecifics including efforts towards identifying alternatives to Protein A-based chromatography. While being regarded as the standard for antibody purification owing to their high affinity and selectivity, these ligands present limitations, including high cost and the potential release of immunogenic fragments. An additional issue with Protein A concerns the presence of antibody aggregates in eluted fraction and their poor selectivity ...

[6] = system: polyclonal human IgG (monomer and aggregates); assay: Aggregate removal from heat-treated polyclonal IgG, SEC; settings: 1 mg/mL IgG incubated 60 °C 10 min; PBS wash; elution pH 4.5; SEC (TSKgel G3000SW)
Experimental: The ability of HWRGWVC-TREN-WB to remove aggregates was further tested by using a polyclonal IgG solution. The formation of aggregates was induced by incubating a 1 mg/mL IgG solution at 60 °C for 10 min. The IgG solution containing aggregates was loaded onto the HWRGWVC-TREN-WB resin, followed by washing with PBS and elution at pH 4.5.
Further, a feed sample containing monomeric and aggregated polyclonal IgG was produced by incubating a 1 mg/mL solution of human IgG at 60 °C for 10 min. The solution was loaded onto the HWRGWVC-TREN-WB resin, followed by washing with PBS and elution at pH 4.5. The collected fractions were analyzed by size exclusion chromatography (SEC) using a TSKgel G3000SW column to determine the ratio of monomeric vs. aggregated IgG in both flow-through and elution fractions.

[7] = system: therapeutic monoclonal IgG1; assay: Purification of monoclonal IgG1 from CHO cell culture supernatant: yield, loss and purity; settings: SDS-PAGE
Experimental: To evaluate the effect of the spacer arm on the purity of the eluted product, the HWRGWV-WB adsorbents constructed with different spacer arms were utilized to purify a monoclonal IgG1 from a CHO cell culture supernatant. […] The collected fractions were analyzed by size exclusion chromatography to measure product yield (Table 2), and by SDS-PAGE to determine the overall product purity by densitometric analysis (Figure 4).
as §1, §2

Row | Qmax (equilibrium binding capacity) [1] [mg·IgG/mL Adsorbent] | Substance | HCP LRV ([2]; washing buffer PBS, pH 7.4) | DNA LRV [3] | IgG binding capacity on agarose WorkBeads ACT [4] | HCP LRV ([2]; washing buffer 0.1 M Tris HCl, pH 9) | HCP removal during washing ([2]; washing buffer 0.2 M sodium phosphate at either pH 6 or 7) | HCP LRV ([2]; washing buffer 1 M NaCl in PBS, pH 7.4) | binding region on IgG [5] | selective capture of monomeric IgG vs aggregates [6] | loss of IgG in washing buffer ([7]; wash 0.1 M Tris HCl, pH 9) | loss of IgG in washing buffer ([7]; wash 1 M NaCl in PBS pH 7.4)
1 | 72 | Ac-HWRGWV [N-terminally acetylated variant of HWRGWV, tested as TREN-WB resin] | 1.38 | ~4 |  |  |  |  |  |  |  | 
2 | 85 | HWRGWV [tested as TREN-WB resin, coupled as HWRGWVC] | 1.04 | ~4 | higher IgG binding capacity as compared to polymethcarylate base resin | 1.39 | did not afford any HCP removal during washing | 1.22 | binds the Fc region of IgG | bind only monomeric IgG |  | 
3 |  | HWRGWVC [peptide HWRGWV with C-terminal cysteine, conjugated through its thiol group to iodoacetyl-WB resin] |  |  |  |  |  |  |  |  | not observed | minor loss of IgG in the washing buffer
4 | 49 | HW[Cit]GWV | 1.58 | ~4 |  |  |  |  |  |  |  | 

From PMC6337475, “Optimization of Sequence, Display, and Mode of Operation of IgG-Binding Peptide Ligands to Develop Robust, High-Capacity Affinity Adsorbents That Afford High IgG Product Quality” (International Journal of Molecular Sciences, 2019)
